Laboratory results: US10322995B2, “Substituted cyano cycloalkyl penta-2,4-dienes, cyano cycloalkyl pent-2-en-4-ynes, cyano heterocyclyl penta-2,4-dienes and cyano heterocyclyl pent-2-en-4-ynes as active substances against abiotic plant stress” (BAYER CROPSCIENCE AKTIENGESELLSCHAFT, priority 2014, dated 2019)

Experiments:
Brassica napus (BRSNS) = assay: In vivo analyses Part A: drought stress, visual damage scoring, efficacy EF (BRSNS); conditions: spray application 250 g/ha, efficacy = reduction in damage intensity
Protocol: (§1) Seeds of monocotyledonous and dicotyledonous crop plants were sown in sandy loam in wood-fibre pots, covered with soil or sand and cultivated in a greenhouse under good growth conditions. The test plants were treated at the early leaf stage (BBCH10-BBCH13). To assure uniform water supply before commencement of stress, the potted plants were supplied with water by dam irrigation prior to substance application. The inventive compounds, formulated in the form of wettable powders (WP), were sprayed onto the green parts of the plants as an aqueous suspension at an equivalent water application rate of 600 I/ha with addition of 0.2% wetting agent (e.g. agrotin). Substance application was followed immediately by stress treatment of the plants. For this purpose, the pots were transferred in plastic inserts in order to prevent them from subsequently drying out too quickly. Drought stress was induced by gradual drying out under the following conditions: “Day”: 14 hours with illumination at 26° C. “Night”: 10 hours without illumination at 18° C. The duration of the respective stress phases was guided mainly by the condition of the stressed control plants. It was ended (by re-irrigating and transfer to a greenhouse with good growth conditions) as soon as irreversible damage was observed on the stressed control plants. The end of the stress phase was followed by an about 4-7-day recovery phase, during which the plants were once again kept under good growth conditions in a greenhouse. The duration of the recovery phase was guided mainly by when the trial plants had attained a state which enabled visual scoring of potential effects, and was therefore variable. Once this juncture was reached, the intensities of damage were scored visually in comparison to untreated, unstressed controls of the same age. The damage intensity was at first assessed in percent. […]

[1] = test system: Triticum aestivum (TRZAS); assay: In vivo analyses Part A: drought stress, visual damage scoring, efficacy EF (TRZAS); conditions: spray application 25 g/ha, efficacy = reduction in damage intensity
Protocol: as §1

Zea mays (ZEAMX) = assay: In vivo analyses Part A: drought stress, visual damage scoring, efficacy EF (ZEAMX); conditions: spray application 25 g/ha, efficacy = reduction in damage intensity
Protocol: Seeds of monocotyledonous and dicotyledonous crop plants were sown in sandy loam in wood-fibre pots, covered with soil or sand and cultivated in a greenhouse under good growth conditions. The test plants were treated at the early leaf stage (BBCH10-BBCH13). To assure uniform water supply before commencement of stress, the potted plants were supplied with water by dam irrigation prior to substance application. The inventive compounds, formulated in the form of wettable powders (WP), were sprayed onto the green parts of the plants as an aqueous suspension at an equivalent water application rate of 600 I/ha with addition of 0.2% wetting agent (e.g. agrotin). Substance application was followed immediately by stress treatment of the plants. For this purpose, the pots were transferred in plastic inserts in order to prevent them from subsequently drying out too quickly. Drought stress was induced by gradual drying out under the following conditions: “Day”: 14 hours with illumination at 26° C. “Night”: 10 hours without illumination at 18° C. The duration of the respective stress phases was guided mainly by the condition of the stressed control plants. […] Once this juncture was reached, the intensities of damage were scored visually in comparison to untreated, unstressed controls of the same age. The damage intensity was at first assessed in percent. […]

CCOC(=O)/C=C(/C)C#CC(O)(c1ccccc1)C1(C#N)CC1 (stereo not drawn) [I.1-236, Ethyl (2Z)-6-(1-cyanocyclopropyl)-6-hydroxy-3-methyl-6-phenylhex-2-en-4-ynoate]
>5%: EF [%] (BRSNS) (Brassica napus (BRSNS)) | EF [%] (TRZAS) [1] | EF [%] (ZEAMX) (Zea mays (ZEAMX))
